Laboratory results: patent publication US20100298141A1, “SUBSTITUTED PYRIDINE N-OXIDE HERBICIDES” (E. I. DU PONT DE NEMOURS AND COMPANY, priority 2007, published 2010)

How the values were obtained:
Assay in all cases: Test F preemergence test
common groundsel = type: in vivo, Senecio vulgaris; details: scale 0 to 100; for Groundsel plant response rating: 62 g ai/ha
Method in brief: (§1)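 Preemergence application to planted seeds, or postemergence to sugarcane plants; compound in non-phytotoxic solvent mix plus surfactant. Greenhouse, 14-21 days. Visual rating vs. controls.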

annual bluegrass = type: in vivo, Poa annua; details: scale 0 to 100; for Bluegrass plant response rating: 62 g ai/ha
Method in brief: as §1

broadleaf signalgrass = type: in vivo, Brachiaria platyphylla; details: scale 0 to 100; for Signalgrass plant response rating: 62 g ai/ha
Method in brief: as §1

common mallow = type: in vivo, Malva sylvestris; details: scale 0 to 100; for Mallow plant response rating: 62 g ai/ha
Method in brief: as §1

common purslane = type: in vivo, Portulaca oleracea; details: scale 0 to 100; for Purslane plant response rating: 62 g ai/ha
Method in brief: as §1

common chickweed = type: in vivo, Stellaria media; details: scale 0 to 100; for Chickweed plant response rating: 62 g ai/ha
Method in brief: as §1

barnyardgrass = type: in vivo, Echinochloa crus-galli; details: scale 0 to 100; for Barnyardgrass plant response rating: 62 g ai/ha
Method in brief: as §1

guineagrass = type: in vivo, Panicum maximum; details: scale 0 to 100; for Guineagrass plant response rating: 62 g ai/ha
Method in brief: as §1

pitted morningglory = type: in vivo, Ipomoea lacunosa; details: scale 0 to 100; for Morningglory plant response rating: 62 g ai/ha
Method in brief: as §1

naked crabgrass = type: in vivo, Digitaria nuda; details: scale 0 to 100; for Crabgrass, Naked plant response rating: 62 g ai/ha
Method in brief: as §1

Virginia dayflower = type: in vivo, Commelina virginica; details: scale 0 to 100; for Dayflower plant response rating: 62 g ai/ha
Method in brief: as §1

quackgrass = type: in vivo, Elytrigia repens; details: scale 0 to 100; for Quackgrass plant response rating: 62 g ai/ha
Method in brief: as §1

dallisgrass = type: in vivo, Paspalum dilatatum; details: scale 0 to 100; for Dallisgrass plant response rating: 62 g ai/ha
Method in brief: as §1

mustard = type: in vivo, Brassica nigra; details: scale 0 to 100; for Black Mustard plant response rating: 62 g ai/ha
Method in brief: as §1

purple nutsedge = type: in vivo, Cyperus rotundus; details: scale 0 to 100; for Purple Nutsedge plant response rating: 62 g ai/ha
Method in brief: as §1

prickly sida = type: in vivo, Sida spinosa; details: scale 0 to 100; for Prickly Sida plant response rating: 62 g ai/ha
Method in brief: as §1

bermudagrass = type: in vivo, Cynodon dactylon; details: scale 0 to 100; for Bermudagrass plant response rating: 62 g ai/ha
Method in brief: as §1

kochia = type: in vivo, Kochia scoparia; details: scale 0 to 100; for Kochia plant response rating: 62 g ai/ha
Method in brief: as §1

Cn1nc(C(F)(F)F)c(C[S+]([O-])c2cccc[n+]2[O-])c1OC(F)F (centres unmarked) [Compound 3]
50: Bluegrass plant response rating (annual bluegrass; Preemergence) | Plant response rating, Bluegrass (annual bluegrass; Preemergence, 31 g ai/ha)
20: Plant response rating, Crabgrass, Naked (naked crabgrass; 8 g ai/ha, preemergence) | Plant response rating, Kochia (kochia; 8 g ai/ha, preemergence)
80: Plant response rating, Barnyardgrass (barnyardgrass; Preemergence, 16 g ai/ha) | Plant response rating, Crabgrass, Naked (naked crabgrass; Preemergence, 16 g ai/ha) | Purple Nutsedge plant response rating (purple nutsedge; Preemergence) | Plant response rating, Prickly Sida (prickly sida; Preemergence, 31 g ai/ha)
65: Plant response rating, Bermudagrass (bermudagrass; Preemergence, 31 g ai/ha) | Plant response rating, Kochia (kochia; Preemergence, 31 g ai/ha)
75: Signalgrass plant response rating (broadleaf signalgrass; Preemergence) | Plant response rating, Signalgrass (broadleaf signalgrass; Preemergence, 31 g ai/ha) | Mallow plant response rating (common mallow; Preemergence) | Quackgrass plant response rating (quackgrass; Preemergence) | Plant response rating, Dallisgrass (dallisgrass; Preemergence, 31 g ai/ha) | Plant response rating, Purple Nutsedge (purple nutsedge; Preemergence, 31 g ai/ha)
40: Plant response rating, Barnyardgrass (barnyardgrass; 8 g ai/ha, preemergence)
0: Plant response rating, Groundsel (common groundsel; 8 g ai/ha, preemergence) | Plant response rating, Groundsel (common groundsel; Preemergence, 16 g ai/ha) | Plant response rating, Bluegrass (annual bluegrass; 8 g ai/ha, preemergence) | Plant response rating, Bluegrass (annual bluegrass; Preemergence, 16 g ai/ha) | Plant response rating, Signalgrass (broadleaf signalgrass; 8 g ai/ha, preemergence) | Plant response rating, Signalgrass (broadleaf signalgrass; 16 g ai/ha, preemergence) | Plant response rating, Mallow (common mallow; 8 g ai/ha, preemergence) | Plant response rating, Mallow (common mallow; Preemergence, 16 g ai/ha) | Plant response rating, Mallow (common mallow; Preemergence, 31 g ai/ha) | Plant response rating, Purslane (common purslane; 8 g ai/ha, preemergence) | Plant response rating, Purslane (common purslane; Preemergence, 16 g ai/ha) | Plant response rating, Guineagrass (guineagrass; 8 g ai/ha, preemergence) | Plant response rating, Morningglory (pitted morningglory; 8 g ai/ha, preemergence) | Plant response rating, Morningglory (pitted morningglory; Preemergence, 16 g ai/ha) | Plant response rating, Dayflower (Virginia dayflower; 8 g ai/ha, preemergence) | Plant response rating, Dayflower (Virginia dayflower; Preemergence, 16 g ai/ha) | Plant response rating, Quackgrass (quackgrass; 8 g ai/ha, preemergence) | Plant response rating, Dallisgrass (dallisgrass; 8 g ai/ha, preemergence) | Plant response rating, Dallisgrass (dallisgrass; Preemergence, 16 g ai/ha) | Plant response rating, Purple Nutsedge (purple nutsedge; 8 g ai/ha, preemergence) | Plant response rating, Prickly Sida (prickly sida; 8 g ai/ha, preemergence) | Plant response rating, Prickly Sida (prickly sida; Preemergence, 16 g ai/ha) | Plant response rating, Bermudagrass (bermudagrass; 8 g ai/ha, preemergence) | Plant response rating, Bermudagrass (bermudagrass; Preemergence, 16 g ai/ha)
95: Plant response rating, Black Mustard (mustard; Preemergence, 31 g ai/ha)
90: Plant response rating, Barnyardgrass (barnyardgrass; Preemergence, 31 g ai/ha) | Plant response rating, Guineagrass (guineagrass; Preemergence, 16 g ai/ha) | Plant response rating, Crabgrass, Naked (naked crabgrass; Preemergence, 31 g ai/ha) | Dayflower plant response rating (Virginia dayflower; Preemergence) | Plant response rating, Dayflower (Virginia dayflower; Preemergence, 31 g ai/ha)
100: Groundsel plant response rating (common groundsel; Preemergence) | Purslane plant response rating (common purslane; Preemergence) | Chickweed plant response rating (common chickweed; Preemergence) | Plant response rating, Chickweed (common chickweed; Preemergence, 31 g ai/ha) | Barnyardgrass plant response rating (barnyardgrass; Preemergence) | Guineagrass plant response rating (guineagrass; Preemergence) | Plant response rating, Guineagrass (guineagrass; Preemergence, 31 g ai/ha) | Crabgrass, Naked plant response rating (naked crabgrass; Preemergence) | Black Mustard plant response rating (mustard; Preemergence) | Prickly Sida plant response rating (prickly sida; Preemergence) | Kochia plant response rating (kochia; Preemergence)
25: Plant response rating, Chickweed (common chickweed; 8 g ai/ha, preemergence)
35: Morningglory plant response rating (pitted morningglory; Preemergence) | Plant response rating, Black Mustard (mustard; 8 g ai/ha, preemergence)
60: Plant response rating, Groundsel (common groundsel; Preemergence, 31 g ai/ha) | Plant response rating, Purslane (common purslane; Preemergence, 31 g ai/ha) | Plant response rating, Black Mustard (mustard; Preemergence, 16 g ai/ha) | Plant response rating, Purple Nutsedge (purple nutsedge; Preemergence, 16 g ai/ha)
15: Plant response rating, Quackgrass (quackgrass; Preemergence, 16 g ai/ha)
30: Plant response rating, Kochia (kochia; Preemergence, 16 g ai/ha)
85: Bermudagrass plant response rating (bermudagrass; Preemergence)
98: Plant response rating, Chickweed (common chickweed; Preemergence, 16 g ai/ha) | Dallisgrass plant response rating (dallisgrass; Preemergence)
70: Plant response rating, Quackgrass (quackgrass; Preemergence, 31 g ai/ha)

Cn1nc(C(F)(F)F)c(C[S+]([O-])c2ccc(Cl)c[n+]2[O-])c1OC(F)F (centres unmarked) [Compound 6]
10: Plant response rating, Bluegrass (annual bluegrass; Preemergence, 16 g ai/ha) | Plant response rating, Purslane (common purslane; 8 g ai/ha, preemergence)
50: Plant response rating, Groundsel (common groundsel; Preemergence, 16 g ai/ha) | Plant response rating, Signalgrass (broadleaf signalgrass; 16 g ai/ha, preemergence) | Plant response rating, Purslane (common purslane; Preemergence, 31 g ai/ha) | Plant response rating, Dallisgrass (dallisgrass; Preemergence, 31 g ai/ha)
90: Bluegrass plant response rating (annual bluegrass; Preemergence) | Mallow plant response rating (common mallow; Preemergence) | Barnyardgrass plant response rating (barnyardgrass; Preemergence) | Plant response rating, Dayflower (Virginia dayflower; Preemergence, 16 g ai/ha) | Plant response rating, Dayflower (Virginia dayflower; Preemergence, 31 g ai/ha)
60: Plant response rating, Quackgrass (quackgrass; Preemergence, 16 g ai/ha) | Kochia plant response rating (kochia; Preemergence)
0: Plant response rating, Groundsel (common groundsel; 8 g ai/ha, preemergence) | Plant response rating, Bluegrass (annual bluegrass; 8 g ai/ha, preemergence) | Plant response rating, Signalgrass (broadleaf signalgrass; 8 g ai/ha, preemergence) | Plant response rating, Mallow (common mallow; 8 g ai/ha, preemergence) | Plant response rating, Mallow (common mallow; Preemergence, 16 g ai/ha) | Plant response rating, Barnyardgrass (barnyardgrass; 8 g ai/ha, preemergence) | Plant response rating, Morningglory (pitted morningglory; 8 g ai/ha, preemergence) | Plant response rating, Morningglory (pitted morningglory; Preemergence, 16 g ai/ha) | Plant response rating, Crabgrass, Naked (naked crabgrass; 8 g ai/ha, preemergence) | Plant response rating, Dayflower (Virginia dayflower; 8 g ai/ha, preemergence) | Plant response rating, Quackgrass (quackgrass; 8 g ai/ha, preemergence) | Plant response rating, Dallisgrass (dallisgrass; 8 g ai/ha, preemergence) | Plant response rating, Black Mustard (mustard; 8 g ai/ha, preemergence) | Plant response rating, Black Mustard (mustard; Preemergence, 16 g ai/ha) | Plant response rating, Purple Nutsedge (purple nutsedge; 8 g ai/ha, preemergence) | Plant response rating, Prickly Sida (prickly sida; 8 g ai/ha, preemergence) | Plant response rating, Prickly Sida (prickly sida; Preemergence, 16 g ai/ha) | Plant response rating, Bermudagrass (bermudagrass; 8 g ai/ha, preemergence) | Plant response rating, Kochia (kochia; 8 g ai/ha, preemergence) | Plant response rating, Kochia (kochia; Preemergence, 16 g ai/ha) | Plant response rating, Kochia (kochia; Preemergence, 31 g ai/ha)
80: Plant response rating, Chickweed (common chickweed; 8 g ai/ha, preemergence) | Plant response rating, Barnyardgrass (barnyardgrass; Preemergence, 31 g ai/ha) | Plant response rating, Crabgrass, Naked (naked crabgrass; Preemergence, 31 g ai/ha) | Plant response rating, Prickly Sida (prickly sida; Preemergence, 31 g ai/ha) | Bermudagrass plant response rating (bermudagrass; Preemergence)
65: Plant response rating, Signalgrass (broadleaf signalgrass; Preemergence, 31 g ai/ha) | Plant response rating, Crabgrass, Naked (naked crabgrass; Preemergence, 16 g ai/ha) | Plant response rating, Quackgrass (quackgrass; Preemergence, 31 g ai/ha) | Plant response rating, Bermudagrass (bermudagrass; Preemergence, 31 g ai/ha)
20: Plant response rating, Purslane (common purslane; Preemergence, 16 g ai/ha) | Plant response rating, Dallisgrass (dallisgrass; Preemergence, 16 g ai/ha) | Plant response rating, Purple Nutsedge (purple nutsedge; Preemergence, 16 g ai/ha) | Plant response rating, Purple Nutsedge (purple nutsedge; Preemergence, 31 g ai/ha)
95: Signalgrass plant response rating (broadleaf signalgrass; Preemergence)
30: Plant response rating, Mallow (common mallow; Preemergence, 31 g ai/ha)
15: Plant response rating, Bermudagrass (bermudagrass; Preemergence, 16 g ai/ha)
100: Chickweed plant response rating (common chickweed; Preemergence) | Plant response rating, Chickweed (common chickweed; Preemergence, 16 g ai/ha) | Plant response rating, Chickweed (common chickweed; Preemergence, 31 g ai/ha) | Plant response rating, Guineagrass (guineagrass; 8 g ai/ha, preemergence) | Guineagrass plant response rating (guineagrass; Preemergence) | Plant response rating, Guineagrass (guineagrass; Preemergence, 16 g ai/ha) | Plant response rating, Guineagrass (guineagrass; Preemergence, 31 g ai/ha) | Crabgrass, Naked plant response rating (naked crabgrass; Preemergence) | Dayflower plant response rating (Virginia dayflower; Preemergence) | Black Mustard plant response rating (mustard; Preemergence) | Plant response rating, Black Mustard (mustard; Preemergence, 31 g ai/ha) | Prickly Sida plant response rating (prickly sida; Preemergence)
75: Groundsel plant response rating (common groundsel; Preemergence) | Plant response rating, Groundsel (common groundsel; Preemergence, 31 g ai/ha) | Plant response rating, Bluegrass (annual bluegrass; Preemergence, 31 g ai/ha) | Morningglory plant response rating (pitted morningglory; Preemergence) | Plant response rating, Morningglory (pitted morningglory; Preemergence, 31 g ai/ha) | Quackgrass plant response rating (quackgrass; Preemergence) | Purple Nutsedge plant response rating (purple nutsedge; Preemergence)
70: Purslane plant response rating (common purslane; Preemergence) | Plant response rating, Barnyardgrass (barnyardgrass; Preemergence, 16 g ai/ha) | Dallisgrass plant response rating (dallisgrass; Preemergence)
